# Assay results reported in patent publication US20240148747A1, “SMALL MOLECULE ACTIVATORS OF YAP TRANSCRIPTIONAL ACTIVITY FOR REGENERATIVE ORGAN REPAIR” (THE SCRIPPS RESEARCH INSTITUTE, priority 2021, published 2024).
# Read-outs that look alike come from different tables or passages of the source.
# Legend:
# YAP = assay: TEAD-LUC activation assay (293A-TEAD-LUC reporter); assay type: cell-based; details: Homo sapiens, read-out: TEAD-LUC activation assay EC50
# Source text: More specifically, we used a 293A cell line harboring a stably integrated cassette containing 8 copies of the TEAD binding element upstream of luciferase (8xGTII-LUC). These cells retain responsiveness to contact inhibition-induced decreases in YAP transcriptional output.^6 The TEAD-responsive reporter assay (called 293A-TEAD-LUC throughout) was adapted to 1536-well format and then used to screen a library of ˜738k compounds for YAP-inducing activity.
# Additional compounds of the present disclosure were subjected to the assay described above.
# [1] = Cytotoxicity in the TEAD-LUC activation assay; details: human
EC50 (YAP; Table 3),EC50 (YAP; Table 4),Compound,IC50 [1]
1.88 µM,,O=C(NCCCCn1cccc1)c1cc(-c2ccccc2)on1 [Compound 12],> 20 µM
> 20 µM,,O=C(NCCCc1nccs1)c1cc(-c2c(F)cc(F)cc2F)on1 [Compound 86],> 20 µM
,5 µM,CCc1cccc(NC(=O)C2CCN(C(=O)c3cc(-c4ccncc4)[nH]n3)CC2)c1 [Compound 155],> 20 µM
,2 µM,N#Cc1cccc(NC(=O)c2cc(-c3ccncc3)[nH]n2)c1 [Compound 154],> 20 µM
,> 20 µM,O=C(NCCCN1CCOCC1)c1cc(-c2ccc(F)cc2)on1 [Compound 135],> 20 µM
> 20 µM,,O=C(NCCn1cccc1)c1n[nH]c2ccccc12 [Compound 93],> 20 µM
,> 20 µM,O=C(NCCCN1CCOCC1)c1cc(-c2ccc(Cl)c(Cl)c2)on1 [Compound 120],> 20 µM
> 20 µM,,CN(CCC#N)C(=O)c1cc(-c2ccccc2)on1 [Compound 52],> 20 µM
,> 20 µM,O=C(NCCc1ccccc1)c1n[nH]c2ccccc12 [Compound 148],> 20 µM
> 20 µM,,O=C(NCCCn1ccnn1)c1cc(-c2ccc(OC(F)(F)F)cc2)on1 [Compound 77],> 20 µM
1.93 µM,,O=C(NCCCn1ccnn1)c1cc(-c2ccccc2)on1 [Compound 14],> 20 µM
5 µM,,O=C(NCCCn1ccnn1)c1cc(-c2ccccc2F)on1 [Compound 71],> 20 µM
,6.71 µM,CC1CN(C(=O)CCNC(=O)c2cc(-c3ccccc3)on2)CC(C)O1 (stereo not shown) [Compound 124],> 20 µM
> 20 µM,,O=C(NCCCc1nccs1)c1ncoc1-c1ccccc1 [Compound 87],> 20 µM
> 20 µM,,O=C(NCCCn1cccc1)c1cc(-c2cccc(F)c2)on1 [Compound 9],> 20 µM
> 20 µM,,CS(=O)(=O)c1ccc(-c2cc(C(=O)NCCCc3nccs3)no2)cc1 [Compound 39],> 20 µM
7.58 µM,,O=C(NCC(F)(F)F)c1cc(-c2ccccc2)on1 [Compound 63],> 20 µM
,> 20 µM,CC(=O)Nc1cccc(NC(=O)c2cc(-c3ccccc3)on2)c1 [Compound 123],> 20 µM
,> 20 µM,O=C(c1cc(-c2ccccc2)on1)N1CCCN(c2cccnn2)CC1 [Compound 140],> 20 µM
> 20 µM,,O=C(NCCNc1ccccc1)c1cc(-c2ccccc2)on1 [Compound 83],> 20 µM
> 20 µM,,O=C(NC12CC(F)(C1)C2)c1cc(-c2ccccc2)on1 [Compound 57],> 20 µM
1.13 µM,,O=C(NCCCn1cccc1)c1cc(-c2ccc(F)cc2)on1 [Compound 2],> 20 µM
> 20 µM,,O=C(NCCCc1nccs1)c1nc2ccccc2o1 [Compound 88],> 20 µM
> 20 µM,,NC(=O)c1ccc(-c2cc(C(=O)NCCCc3nccs3)no2)cc1 [Compound 32],> 20 µM
15 µM,,O=C(NCCCn1ccnn1)c1cc(-c2cccc(F)c2)on1 [Compound 74],> 20 µM
,6.04 µM,CN1CCN(CCNC(=O)c2cc(-c3ccccc3)on2)CC1 [Compound 128],> 20 µM

EC50 (YAP; Table 3),EC50 (YAP; Table 4),Compound,IC50 [1]
> 20 µM,,Cc1c(C(=O)NCCCn2cccc2)noc1-c1ccccc1 [Compound 18],> 20 µM
> 20 µM,,Cc1ccc(-c2cc(C(=O)NCCCn3ccnn3)no2)cc1 [Compound 72],> 20 µM
> 20 µM,,CN(C)CCN(C)C(=O)c1cc(-c2ccccc2)on1 [Compound 58],> 20 µM
,3 µM,CCCN1C(=O)CCc2cc(NC(=O)c3ccn(CC)n3)ccc21 [Compound 149],> 20 µM
> 20 µM,,CC(C)(C)SCCNC(=O)c1cc(-c2ccccc2)on1 [Compound 51],> 20 µM
> 20 µM,,CC(F)(F)C(C)(C)NC(=O)c1cc(-c2ccccc2)on1 [Compound 46],> 20 µM
> 20 µM,,C[C@H](NC(=O)c1cc(-c2ccccc2)on1)c1ccccc1 [Compound 50],> 20 µM
> 20 µM,,O=C(N[C@H]1C[C@@H]1n1cccc1)c1cc(-c2ccccc2)on1 [Compound 104],> 20 µM
,> 20 µM,Cc1ccc(C2CCCN2C(=O)c2cc(-c3ccc4c(c3)OCO4)on2)cc1 (stereo not shown) [Compound 108],> 20 µM
,> 20 µM,CC(C)(CO)NC(=O)c1cc(-c2ccccc2)on1 [Compound 107],> 20 µM
> 20 µM,,O=C(NCCCc1nccs1)c1noc(-c2ccccc2)n1 [Compound 103],> 20 µM
,1.02 µM,O=C(NCCCn1cccc1)c1cc(-c2ccccc2)on1 [Compound 110],> 20 µM
,10 µM,O=C(NC1CCCc2ccccc21)c1cc(-c2ccccc2)n[nH]1 (stereo not shown) [Compound 151],> 20 µM
,> 20 µM,Cc1ccc(-c2cc(C(=O)NCCC(=O)N(C)Cc3ccccc3)no2)cc1 [Compound 119],> 20 µM
10 µM,,O=C(NCCCn1ccnn1)c1cc(-c2ccc(F)cc2F)on1 [Compound 75],> 20 µM
,> 20 µM,Cc1ccc(-c2cc(C(=O)NCCC(=O)NC(C)C)no2)cc1C [Compound 116],1 µM
,> 20 µM,COc1ccc(OC)c(-c2cc(C(=O)NCCc3nc(C)cs3)no2)c1 [Compound 130],> 20 µM
> 20 µM,,O=C(NCCCn1ccnn1)c1cc(-c2cccnc2)on1 [Compound 78],> 20 µM
> 20 µM,,O=C(NCCCc1nccs1)c1noc2ccccc12 [Compound 34],> 20 µM
> 20 µM,,NS(=O)(=O)c1ccc(-c2cc(C(=O)NCCCc3nccs3)no2)cc1 [Compound 42],> 20 µM
10 µM,,O=C(NCCCN1CCOCC1)c1cc(-c2ccccc2F)on1 [Compound 100],> 20 µM
,5 µM,Cc1ccc(N2CC(C(=O)NCc3n[nH]c4ccccc34)CC2=O)cc1 (stereo not shown) [Compound 156],> 20 µM
,2.68 µM,"CN1CCN(CCCNC(=O)c2cc(-c3ccccc3)on2)CC1 [Compound 127, N-[3-(4-methylpiperazin-1-yl)propyl]-5-phenyl-1,2-oxazole-3-carboxamide]",> 20 µM
,10 µM,Cc1cccc(C)c1NC(=O)c1n[nH]c(=O)c2ccccc12 [Compound 150],> 20 µM
> 20 µM,,O=C(NCCCn1cccc1)c1cc(-c2ccncc2)on1 [Compound 29],> 20 µM
> 20 µM,,O=C(NCCCc1nccs1)c1cc(-c2ccc(-c3ccccc3)cc2)on1 [Compound 40],> 20 µM

EC50 (YAP; Table 3),EC50 (YAP; Table 4),Compound,IC50 [1]
> 20 µM,,O=C(NCCCn1ccnn1)c1cc(-c2cncnc2)on1 [Compound 82],> 20 µM
15 µM,,O=C(Nc1cccc(-c2nccs2)c1)c1cc(-c2ccccc2)on1 [Compound 37],> 20 µM
> 20 µM,,O=C(NCCc1cccc(C(F)(F)F)c1)c1cc(-c2ccccc2)on1 [Compound 69],> 20 µM
> 20 µM,,COc1cccc(CCNC(=O)c2cc(-c3ccccc3)on2)c1 [Compound 53],> 20 µM
> 20 µM,,COc1ccc(-c2cc(C(=O)NCCCn3cccc3)no2)cc1 [Compound 3],> 20 µM
,3.97 µM,O=C(NCCCN1CCCCCC1=O)c1cc(-c2ccccc2)on1 [Compound 141],> 20 µM
,> 20 µM,CN(C)CCN(C(=O)c1cc(-c2ccccc2)on1)c1ccccc1 [Compound 126],> 20 µM
,> 20 µM,O=C(c1cc(-c2ccccc2)on1)N1CCC(c2nc3ccccc3s2)CC1 [Compound 138],> 20 µM
1.13 µM,,O=C(NCCCn1nccn1)c1cc(-c2ccccc2)on1 [Compound 7],> 20 µM
,2.5 µM,CN1C(=O)CCc2cc(NC(=O)c3n[nH]c4ccccc34)ccc21 [Compound 147],> 20 µM
> 20 µM,,O=C(NCCCn1cccc1)c1n[nH]c2ccccc12 [Compound 101],> 20 µM
> 20 µM,,O=C(NCCc1ccc(Cl)c(Cl)c1)c1cc(-c2ccccc2)on1 [Compound 65],> 20 µM
> 20 µM,,O=C(NCCCc1nccs1)c1cncc(C(F)(F)F)c1 [Compound 92],> 20 µM
,3.25 µM,O=C(NCCCn1cncn1)c1cc(-c2ccccc2)on1 [Compound 113],> 20 µM
> 20 µM,,O=C(NCCc1ccc(Cl)c(F)c1)c1cc(-c2ccccc2)on1 [Compound 47],15 µM
> 20 µM,,O=C(NCc1cccs1)c1cc(-c2ccccc2)on1 [Compound 54],> 20 µM
,> 20 µM,CCN1C(=O)NC(=O)C12CCN(C(=O)c1cc(-c3ccccc3)on1)CC2 [Compound 125],> 20 µM
> 20 µM,,O=C(NCCCn1cccc1)c1cc(-c2cccc(Cl)c2)on1 [Compound 1],> 20 µM
,> 20 µM,O=C(c1cc(-c2ccccc2)on1)N1CCC(Nc2ncccn2)CC1 [Compound 137],> 20 µM
> 20 µM,,O=C(NCCCc1nccs1)c1n[nH]c2ccccc12 [Compound 84],> 20 µM
> 20 µM,,O=C(NCCCn1ccnn1)c1n[nH]c2ccccc12 [Compound 97],> 20 µM
,> 20 µM,O=C(c1cc(-c2ccccc2)on1)N1CCC(n2cccc2)CC1 [Compound 115],> 20 µM
,2.88 µM,Cc1ccc(NCCCNC(=O)c2cc(-c3ccccc3)on2)nc1 [Compound 131],> 20 µM
> 20 µM,,"S=C(NCCn1cccc1)c1cc(-c2ccccc2)on1 [Compound 106, N-(2-(1H-pyrrol-1-yl)ethyl)-5-phenylisoxazole-3-carbothioamide]",> 20 µM
> 20 µM,,O=C(NCCCn1ccnn1)c1cc(-c2cc(F)cc(F)c2)on1 [Compound 80],> 20 µM
